From patent publication US20260265230A1, “FLUORESCENT AND SELF-ASSEMBLING UREIDOPYRIMIDINONE CONJUGATES AND PREPARATION THEREOF” (COUNCIL OF SCIENTIFIC AND INDUSTRIAL RESEARCH AN INDIAN …, priority 2022, published 2026)

Assay: Fluorescent studies (absorption and emission spectra) in DMSO
Type: physicochemical
Conditions: concentration 1×10^−5 M; for maximum absorption wavelength (λabs) / maximum emission wavelength (λems): FIG. 1
Text: FIG. 1 represents absorption and emission spectra of (a) coumarin-UpyFlAA (6) and (b) hydroquinone-UPy-FlAA(10), in accordance with an implementation of the present disclosure.

Row | SMILES | fluorescence (relative fluorescence intensity) | maximum absorption wavelength (λabs) [nm] | maximum emission wavelength (λems) [nm]
1 | CCN(CC)c1ccc2cc(-c3cc(=O)[nH]c(NC(=O)NCCCC[C@H](NC(=O)OC(C)(C)C)C(=O)O)n3)c(=O)oc2c1 [Compound 6, N2-(tert-butoxycarbonyl)-N6-((4-(7-(diethylamino)-2-oxo-2H-chromen-3-yl)-6-oxo-1,6-dihydropyrimidin-2-yl)carbamoyl)lysine] | high level of fluorescence | 437 | 487
2 | COc1ccc(OC)c(-c2cc(=O)nc(NC(=O)NCCCC[C@H](NC(=O)OC(C)(C)C)C(=O)O)[nH]2)c1 [Compound 10, N2-(tert-butoxycarbonyl)-N6-((6-(2,5-dimethoxyphenyl)-4-oxo-1,4-dihydropyrimidin-2-yl)carbamoyl)lysine] | high level of fluorescence | 310 | 421
